{"source": "patent US4444776A", "about": "“Dipyrido (4,3-B) (3,4-F) indoles, process for obtaining them, therapeutical use and pharmaceutical compositions” (priority 1977, dated 1984)", "key": {"L1210 leukemia": {"test_system": "L1210 leukemia", "assay": "Test 16: structure-activity of R'1 substitution, L1210 (Table XII)", "type": "in vivo, mouse (C57B16xDBA/2)F1", "parameters": "MST: unit not given here", "method": "Test 16: Relationship between structure and activity of various dipyrido indoles differing by the R'1 substitution.\nL1210 leukemia has been maintained by weekly passages on (C57B16xDBA/2)F1 mice. On day 0, mice were inoculated by I.P. route with various numbers of L1210 ascitic tumor cells in volumes of 0.1 ml. Subsequently as indicated, drugs were administrated in Ca^++ and Mg^++ free PBS solutions (Gibco) or in Mac Coy's medium (Gibso or Microbiological Associates). […]"}, "[1]": {"test_system": "tumoral strain derived from the murine leukemia due to the C. FRIEND virus", "assay": "Test 7: antitumoral activity in vitro on Friend leukemia tumoral strain", "type": "cell-based", "conditions": "HUM = 1", "method": "Test 7: Study of the antitumoral activity in vitro\nThis activity was measured on a tumoral strain derived from the murine leukemia due to the C. FRIEND virus.\nThe tumoral cells multiply in suspension in a \"RPMI 1640\" medium (Catalogue of GIBCO Bio-cult. Ltd. Washington Road, Sandyford Industrial Estate, PAISLEY PA 3 4EP, Renfrewshire, Scotland) supplemented with 20% of embryonary calf serum, penicillin and streptomycine. The duplication time of these cells is 11 hours. The growth fraction is equal to 1 or very close to 1 (all the cells are in the cycle). The cultures are sub-culturedat time t=0 at the concentration of 2.10^5 cells per ml in Falcon dishes containing 4 ml of medium. After twenty four hours, the product to be tested was added, i.e. at a moment when the cultures are in exponential phase of growth. Twenty four hours after the addition of the product, the cells are counted and the percentage of living cells determined by an exclusion test using \"trypan\" blue."}, "L 1210 leukemia": {"test_system": "L 1210 leukemia", "assay": "Test 1: antitumoral properties on L 1210 leukemia (Table I)", "type": "in vivo, mouse", "conditions": "0.1 mg/mouse (5 mg/kg), J+1", "method": "The lower animal antitumoral properties of the compounds according to the invention have been determined by their curative action on inoculated test L-1210 leukemia. [ZUBROD C. G., Proc. Nat. Acad. Sci. 1972, 69, 1042-1047 and SCHEPARTZ SA. SCREENING, 1971, CANCER Chemother. Rep. Part 3 vol.2 p.3].\nThis leukemia is maintained in ascitic form by passage (i.p. route) on CBDl (C57 B16×DBA/2)F1 mice. The preparation to be tested are injected by the intraperitoneal route at least one day after the inoculation of the cells (one injection only). The results are expressed in increased life span per cent (ILS %) according to KESSEL et al. Cancer Res. 1971, 31, 1883-1887) or in percentage of the number of cells killed by the product (the survival of the animals is proportional to the number of cells injected).\nThe following tests were made in groups of 10 mice, unless stipulated to the contrary.\nTest 1: Study of the antitumoral properties of the compounds of the invention on L 1210 leukemia\nThe lower animal antitumoral properties of the compounds according to the invention were determined by their curative action on test inoculated L 1210 leukemia.\nThis leukemia was maintained on CBD 1 (C 57 B 16×DBA/2) F1 mice. The compounds to be tested were injected by the IP route one or more days after the inoculation of the cells (single injection). The results obtained, shown in table I hereinafter, are expressed in percentage of increase of life span (ILS %) and in percentage of the number of cells killed by the compound to be tested, the survival of the animals being proportional to the number of cells injected.\nThe percentage of the like span ILS % (Cancer. Res. 1971, 31, 1883-1887) is the following ratio: [formula] S^t =survival of the treated animals S^c =survival of the control animals"}, "[2]": {"test_system": "Moloney virus / viro-induced Moloney sarcoma", "assay": "Test 3: development of the viro-induced Moloney sarcoma", "type": "in vivo, new-born mice", "conditions": "J+1", "source_text": "The study of the development of the MOLONEY viro-induced sarcoma (Nat. Cancer. Inst. Monograph 22, 139-142, 1966) has also made it possible to determine that the compounds according to the invention are antiviral and antitumoral agents in lower animals.\nTest 3: Study of the development of the viro-induced Moloney sarcoma\nThe injection of Moloney virus [C. Jasmin et al. J. Nat. Cander Inst. 1974 53 469-474] by the intramuscular i.m. route into new-born mice led after 10 days to the formation of a sarcoma. The appearance of the tumour was proportional to the dose of virus injected. The viral inoculum was constituted by a tumor homogenate diluted to 1/250, this corresponding to 10 TID 50, i.e. to the dose of virus inducing the appearance of a tumour in 50% of the animals infected. At this dose, 80 to 100% of the animals developed a tumour, and 100% of the survivors became leukemic. The experiment thus consisted in noting the number of mice presenting tumours, the regression, or not, of these tumours and finally in sacrificing the surviving animals after 2 months and in noting the presence or absence of splenomegaly (evidence of a leukemia). The virus was inoculated into new-born mice of 3 to 5 days by the IM route, and the mice received the following day (J+1) or five hours after injection (JO+5 hours) the product to be tested by the IP route."}, "[3]": {"assay": "Test 4: toxicity on new-born mice, IP", "type": "in vivo, mouse", "conditions": "mouse, in vivo, read-out: dead mice (converted)", "source_text": "(§1) Test 4: Investigation of the toxicity\n(§2) The toxic dose has been sought, on adult ([…]×DBA/2) Fl mice and on new-born mice, of the compounds of the invention by injection by the IP route. The results obtained are given hereinafter:\n(§3) 2-On new-born mice (IP route)"}, "new-born mice": {"test_system": "new-born mice", "assay": "Test 4: toxicity on new-born mice, IP", "type": "in vivo, mouse", "source_text": "as §1, §2, §3"}, "[4]": {"conditions": "10^4 cells, 5 mg/kg, day +1, control MST 11.8"}}, "note": "Like-named read-outs stand apart in the source and are kept apart here."}
{"smiles": "Cc1c2cc[n+](C)cc2c(C)c2c1[nH]c1cc[n+](C)cc12", "note": "[Example 2, 2,5,9,11-tetramethyl dipyrido [4,3-b][3,4-f] indolinium diacetate]", "values": [{"measurement": "60 days surv.", "setting": "L1210 leukemia; 10^4 cells, 20 mg/kg, day +4", "value": 0}, {"measurement": "ILS %", "setting": "L1210 leukemia; 10^4 cells, 20 mg/kg, day +4", "value": 0.9, "unit": "%"}, {"measurement": "MST", "setting": "L1210 leukemia; 10^4 cells, 20 mg/kg, day +4", "value": 11.3}, {"measurement": "Range of death", "setting": "L1210 leukemia; 10^4 cells, 20 mg/kg, day +4", "value": "10-17"}, {"measurement": "Activity (ratio of the LD50 of HUM to the LD50 of the product tested)", "setting": "[1]", "value": 0.2}]}
{"smiles": "Cc1c2cc[n+](C)cc2c(C)c2c1[nH]c1ccc(O)cc12", "note": "[HUM, 2N--methyl-9-hydroxy-ellipticinium acetate, reference compound]", "values": [{"measurement": "ILS %", "setting": "L 1210 leukemia; 10^3 cells", "value": 22.15, "unit": "%"}, {"measurement": "Number of cells found", "setting": "L 1210 leukemia; 10^3 cells", "value": 60}, {"measurement": "Number of cells killed", "setting": "L 1210 leukemia; 10^3 cells", "value": 94, "unit": "%"}, {"measurement": "Surviving mice", "setting": "L 1210 leukemia; 10^3 cells", "value": "3/10"}, {"measurement": "ILS %", "setting": "L 1210 leukemia; 10^4 cells, IP", "value": 22.6, "unit": "%"}, {"measurement": "Number of cells found", "setting": "L 1210 leukemia; 10^4 cells", "value": 400}, {"measurement": "Number of cells killed", "setting": "L 1210 leukemia; 10^4 cells", "value": 96, "unit": "%"}, {"measurement": "Surviving mice", "setting": "L 1210 leukemia; 10^4 cells", "value": "1/10"}, {"measurement": "animals survived", "setting": "[2]; 1 μg/mouse (0.5 mg/kg)", "value": 90, "unit": "%"}, {"measurement": "mice presenting tumours", "setting": "[2]; 1 μg/mouse (0.5 mg/kg)", "value": 30, "unit": "%"}, {"measurement": "mice with leukemia", "setting": "[2]; 1 μg/mouse (0.5 mg/kg)", "value": 33, "unit": "%"}, {"measurement": "tumours regressed", "setting": "[2]; 1 μg/mouse (0.5 mg/kg)", "value": 90, "unit": "%"}, {"measurement": "animals presenting a tumour", "setting": "[2]; 5 μg/mouse (2.5 mg/kg)", "value": 20, "unit": "%"}, {"measurement": "mice leukemic", "setting": "[2]; 5 μg/mouse (2.5 mg/kg)", "value": 10, "unit": "%"}, {"measurement": "tumour regression", "setting": "[2]; 5 μg/mouse (2.5 mg/kg)", "value": 100, "unit": "%"}, {"measurement": "60 days surv.", "setting": "L1210 leukemia; 10^3 cells, 5 mg/kg, day +1", "value": 3}, {"measurement": "ILS %", "setting": "L1210 leukemia; 10^3 cells, 5 mg/kg, day +1", "value": 22.15, "unit": "%"}, {"measurement": "MST", "setting": "L1210 leukemia; 10^3 cells, 5 mg/kg, day +1", "value": 16.86}, {"measurement": "Range of death", "setting": "L1210 leukemia; 10^3 cells, 5 mg/kg, day +1", "value": "14-20"}, {"measurement": "ILS %", "setting": "L1210 leukemia; [4]", "value": 22.6, "unit": "%"}, {"measurement": "MST", "setting": "L1210 leukemia; [4]", "value": 14.9}, {"measurement": "Range of death", "setting": "L1210 leukemia; [4]", "value": "14-20"}, {"measurement": "mortality", "setting": "[3]; 5 μg: 2.5 mg/kg", "value": 37.5, "unit": "%"}, {"measurement": "mortality", "setting": "[3]; 10 μg: 5 mg/kg", "value": 37.5, "unit": "%"}, {"measurement": "appearance of mice", "setting": "new-born mice; 5 μg: 2.5 mg/kg", "value": "mice puny in appearance"}, {"measurement": "appearance of mice", "setting": "new-born mice; 10 μg: 5 mg/kg", "value": "mice puny in appearance"}]}
